The NIST ThermoML archive (doi:10.1021/je034222z)
± gives the expanded uncertainty stated by the source.

## OCCC(F)(F)C(F)(F)C(F)(F)C(F)(F)C(F)(F)C(F)(F)C(F)(F)C(F)(F)F [1-decanol, 3,3,4,4,5,5,6,6,7,7,8,8,9,9,-heptadecafluoro]
294.1 K, Crystal, Transpiration method
  vapor or sublimation pressure: 0.003 ± 0.001 kPa
357.15 K, Liquid
  vapor or sublimation pressure: 0.708 ± 0.13 kPa
369.15 K, Liquid
  vapor or sublimation pressure: 1.465 ± 0.21 kPa
380.15 K, Liquid
  vapor or sublimation pressure: 2.774 ± 0.25 kPa
392.15 K, Liquid
  vapor or sublimation pressure: 4.91 ± 0.32 kPa
397.15 K, Liquid
  vapor or sublimation pressure: 5.1 ± 1 kPa
403.15 K, Liquid
  vapor or sublimation pressure: 8.284 ± 0.42 kPa
415.15 K, Liquid
  vapor or sublimation pressure: 13.8 ± 0.6 kPa
421.15 K, Liquid
  vapor or sublimation pressure: 15.27 ± 3.1 kPa
428.15 K, Liquid
  vapor or sublimation pressure: 22.75 ± 0.89 kPa
430.15 K, Liquid
  vapor or sublimation pressure: 23.4 ± 4.7 kPa
439.15 K, Liquid
  vapor or sublimation pressure: 34.45 ± 1.3 kPa
440.15 K, Liquid
  vapor or sublimation pressure: 32 ± 6.4 kPa
445.15 K, Liquid
  vapor or sublimation pressure: 35.67 ± 7.1 kPa
452.15 K, Liquid
  vapor or sublimation pressure: 51.67 ± 1.8 kPa
463.15 K, Liquid
  vapor or sublimation pressure: 72.34 ± 2.5 kPa
468.15 K, Liquid
  vapor or sublimation pressure: 75.75 ± 15 kPa
474.15 K, Liquid
  vapor or sublimation pressure: 100.61 ± 3.4 kPa
498.15 K, Liquid
  vapor or sublimation pressure: 162.1 ± 32 kPa
Crystal, visual observation
  Normal melting temperature: 49.0 ± 2 °C
